The subject of experiment [1] is hand-foot syndrome caused by capecitabine in SD rats. As to the kind of experiment: Rat model of hand-foot syndrome caused by capecitabine, gel application. The format is in vivo. The following applies: capecitabine 4000 mg/kg once daily, 40 days; for Control Rate: SD rats; for inhibition in vivo at 0.1 % / inhibition in vivo at 0.5 % / inhibition in vivo at 1 % / inhibition in vivo at 3 % / inhibition in vivo at 5 %: Rattus norvegicus, topical, 960 h; for inhibition in vivo at 0.1 % / inhibition in vivo at 0.5 % / inhibition in vivo at 1 % / inhibition in vivo at 3 % / inhibition in vivo at 5 % / Control Rate Forepaws / Control Rate Hindpaws: rats. On the procedure: A rat animal model was established. 6-week aged female SD rats were administered with capecitabine by daily gavage. The degree of hand-foot syndrome in paws is similar, and there was no difference between the left and right paws. Similar to the human body, rats developed hand-foot syndrome after oral administration of capecitabine. The causes of the two are the same, and the disorder is also very similar. Therefore, rats are very good animal models for simulating the hand-foot syndrome caused by capecitabine.
After SD rats were fed and adapted for one week (about 200 g), the rats were divided into groups, with 10 rats in each group. Then, the rats were subject to gavage administration. Capecitabine was dissolved in a 1:1 mixed solution of castor oil and ethanol and diluted for three times with PBS buffer. After gavage, the rats were fixed with a fixed cylinder, and a gel of thymidine derivative (or a compounded gel of thymidine derivative and uridine derivative) was applied to double hind paws (about 1 cm*3 cm) of the rats in group of administration (the types and concentrations are shown in Table 4), and a blank gel was applied to the group of blank (as a blank control). After approximately 4 hours of application, the rats were released after 4 hours, wiped with clean water to remove any residual drug at the application site, and allowed back to the cage. The thymidine derivative gel (or the compounded gel of thymidine derivative and uridine derivative) was administered with gavage every day. The gavage and application tests are repeated daily until the group of blank has developed obvious hand-foot syndrome.
Table 4 lists the combinations of animal experiments of capecitabine and the thymidine derivative gel (or the compounded gel of thymidine derivative and uridine derivative) and the corresponding experimental results (wherein, the data in the column of control rate=the occurrence rate of hand-foot syndrome in group of blank—the occurrence rate of hand-foot syndrome in group of administration). […]

Experiment [2] deals with hand-foot syndrome caused by capecitabine in Balb/c mice. As to the kind of experiment: Mouse model of hand-foot syndrome caused by capecitabine, gel application or oral administration. The following applies: capecitabine 1000 mg/kg once daily; for inhibition in vivo at 2 % / inhibition in vivo at 5 % / inhibition in vivo at 1 % / inhibition in vivo at 3 % / inhibition in vivo at 300 mg/kg / inhibition in vivo at 0.5 % / inhibition in vivo at 200 mg/kg: Mus musculus; for inhibition in vivo at 2 % / inhibition in vivo at 5 % / inhibition in vivo at 1 % / inhibition in vivo at 3 % / inhibition in vivo at 0.5 %: topical, 360 h; for inhibition in vivo at 2 %: gel 2 wt%; for inhibition in vivo at 2 % / inhibition in vivo at 5 % / inhibition in vivo at 1 % / inhibition in vivo at 3 % / inhibition in vivo at 0.5 % / Control Rate Forepaws / Control Rate Hindpaws: 15 days; for inhibition in vivo at 5 %: gel 5 wt%; for inhibition in vivo at 300 mg/kg / inhibition in vivo at 200 mg/kg: 192 h, 8 days; for inhibition in vivo at 300 mg/kg: oral 300 mpk twice per day; for inhibition in vivo at 0.5 %: gel 0.5 wt%; for inhibition in vivo at 200 mg/kg: oral 200 mpk twice per day. The experiment is classed as in vivo. The procedure:
A mouse animal model was established. 6-week aged male Balb/c mice were administered with capecitabine by daily gavage. After a few days, mice's paws developed hand-foot syndrome symptoms (similar to the results of the rat model, such as, in FIG. 13). Similar to the human body, mice developed hand-foot syndrome in the forepaws and hind paws after oral administration of capecitabine. The causes of the two are the same, and the disorder is also very similar. Therefore, mice are very good animal models for simulating the hand-foot syndrome caused by capecitabine.
After Balb/c mice were fed and adapted for one week (about 20 g), the mice were divided into groups, with 10 mice in each group. Then, the mice were subject to gavage administration. Capecitabine was dissolved in normal saline with pH=8, and the gavage dose was not greater than 0.3 mL at each time. After gavage, the blank gel was applied to the forepaws and the hind paws (about 4*0.5 cm*0.5 cm) in group of blank gel, and gels containing different drugs were applied to the forepaws and the hind paws (about 4*0.5 cm*0.5 cm) in group of administration. After application, the mice were fixed in Elizabethan collar for 4 hours. After 4 hours, the mice were released, wiped with clean water to remove any residual drug at the application site, and allowed back to the cage. The gavage and application tests are repeated daily until the group of blank has developed obvious hand-foot syndrome. […] Additionally, the thymidine derivative and the combination of thymidine derivative and uridine derivative were orally administered for observing the relief of the hand-foot syndrome. In examples 41-48, thymidine derivative and/or uridine derivative were/was applied, and in examples 49-52, thymidine derivative and/or uridine derivative were/was administered orally.
Table 5 lists the combinations of animal experiments of capecitabine and thymidine derivative (or a combination of thymidine derivative and uridine derivative) and the corresponding experimental results (wherein the data in the column of control rate=the occurrence rate of hand-foot syndrome in group of blank—the occurrence rate of hand-foot syndrome in group of administration).
The effect of thymidine derivative or a combination of thymidine derivative and uridine derivative on a mouse model with chemotherapeutic drug (capecitabine)-induced hand-foot syndrome was tested according to the method in Examples 41-52. Wherein, the drugs were administered transdermally for Examples 119-120 and orally for Examples 121-123.
The test thymidine derivative or the combination of thymidine derivative and uridine derivative, as well as the final concentration of the test compounds were shown in Table 9. Table 9 lists the combinations of animal experiments of capecitabine and the thymidine derivative gel (or a compounded gel of thymidine derivative and uridine derivative) and the corresponding experimental results (wherein the data in the column of control rate=the occurrence rate of hand-foot syndrome in Group of blank—the occurrence rate of hand-foot syndrome in Group of administration).

[3] abbreviates: read-out: Control Rate Forepaws.
Where [4] appears, read: read-out: Control Rate Hindpaws.
The mark [5] stands for this setting: gel 3 wt%, read-out: Control Rate Forepaws.
Where [6] appears, read: gel 3 wt%, read-out: Control Rate Hindpaws.

Molecules are shown by their SMILES. Where two headings read alike, the source gives them in different places.

As to `CC(=O)OC[C@H]1O[C@@H](n2cc(C)c(=O)[nH]c2=O)C[C@@H]1O` [T3], the “Control Rate” value in experiment [1] (gel 1 wt% on hind paws) is recorded as 27.50%. In addition, the inhibition in vivo at 2 % in experiment [2] (setting [3]) is 20%; in experiment [2] (setting [4]), 30%.
For `COc1ccc2cc([C@H](C)C(=O)OC[C@H]3O[C@@H](n4cc(C)c(=O)[nH]c4=O)C[C@@H]3O)ccc2c1` [T25], the inhibition in vivo at 0.1 % came out at 22.2% in experiment [1] (gel 0.10 wt%, read-out: Control Rate Forepaws) and 33.3% in experiment [1] (gel 0.10 wt%, read-out: Control Rate Hindpaws). In addition, the inhibition in vivo at 0.5 % was 22.2% in experiment [1] (gel 0.50 wt%, read-out: Control Rate Forepaws) and 44.4% in experiment [1] (gel 0.50 wt%, read-out: Control Rate Hindpaws). The inhibition in vivo at 1 % in experiment [1] (gel 1 wt%, read-out: Control Rate Forepaws) is 37.5%; in experiment [1] (gel 1 wt%, read-out: Control Rate Hindpaws), 50%; in experiment [2] (transdermal 1% (wt %), read-out: Control Rate Forepaws), 22.2%; in experiment [2] (transdermal 1% (wt %), read-out: Control Rate Hindpaws), 44.4%. The inhibition in vivo at 3 % in experiment [1] (setting [5]) turned out to be 62.5%; in experiment [1] (setting [6]) it was 75%; in experiment [2] (transdermal 3% (wt %), read-out: Control Rate Forepaws) it was 25%; in experiment [2] (transdermal 3% (wt %), read-out: Control Rate Hindpaws), 37.5%. Further, the inhibition in vivo at 5 % in experiment [1] (gel 5 wt%, read-out: Control Rate Forepaws) was 57.1%; in experiment [1] (gel 5 wt%, read-out: Control Rate Hindpaws) it was 71.4%; in experiment [2] (setting [3]) it was 44.4%; in experiment [2] (setting [4]), 66.7%.
For `CC(=O)O[C@H]1C[C@H](n2cc(C)c(=O)[nH]c2=O)O[C@@H]1CO` [T2], the “Control Rate” value in experiment [1] (gel 1 wt% on hind paws) came out at 23.33%. The inhibition in vivo at 2 % in experiment [2] (setting [3]) is 40%; in experiment [2] (setting [4]) it was 27.5%.
Regarding `CC(=O)OCC1OC(n2cc(C)c(=O)[nH]c2=O)CC1OC(C)=O` (stereo not drawn) [T1], the inhibition in vivo at 3 % in experiment [1] (setting [5]) came out at 57.1%; in experiment [1] (setting [6]), 71.4%. Moreover, the “Control Rate” value in experiment [1] (gel 0.5 wt% on hind paws) was found to be 20.00%; in experiment [1] (gel 2 wt% on hind paws), 27.50%; in experiment [1] (gel 5 wt% on hind paws), 56.67%. The inhibition in vivo at 300 mg/kg is 80% in experiment [2] (setting [3]) and 90% in experiment [2] (setting [4]). The inhibition in vivo at 0.5 % in experiment [2] (setting [3]) was found to be 30%; in experiment [2] (setting [4]), 20%. The results for the inhibition in vivo at 2 % in experiment [2] (setting [3]) and in experiment [2] (setting [4]) were 45.6% and 34.4%, respectively. Further, the inhibition in vivo at 5 % turned out to be 67.8% in experiment [2] (setting [3]) and 78.9% in experiment [2] (setting [4]).
For `Cc1cn([C@H]2C[C@H](O)[C@@H](COC(=O)[C@H](C)c3ccc(CC(C)C)cc3)O2)c(=O)[nH]c1=O` [T32], the figures for the inhibition in vivo at 3 % in experiment [1] (setting [5]) and in experiment [1] (setting [6]) were 37.5% and 62.5%, respectively. Also, the inhibition in vivo at 300 mg/kg in experiment [2] (setting [3]) came to 71.4%; in experiment [2] (setting [4]) it was 57.1%.
As for `Cc1cn([C@H]2C[C@H](O)[C@@H](COC(=O)C(C)c3cccc(Oc4ccccc4)c3)O2)c(=O)[nH]c1=O` (stereo partly drawn) [T27, ((2R,3S, 5R)-3-hydroxyl-5-(5-methyl-2,4-dioxy-3,4-dihydropyrimidin-1(2H)-yl)tetrahydrofuran-2-yl)2-(3-phenoxyphenyl)propionate Methyl], the “Control Rate Forepaws” value is reported as 22.22% in experiment [1] (gel 0.10 wt%); 33.33% in experiment [1] (gel 0.50 wt%); 25% in experiment [1] (gel 1 wt%); 57.14% in experiment [1] (gel 3 wt%); 50% in experiment [1] (gel 5 wt%); 50% in experiment [2] (transdermal 1% (wt %)). In experiment [2] (transdermal 3% (wt %)), the “Control Rate Forepaws” value was found to be 42.86%. Besides, the “Control Rate Hindpaws” value in experiment [1] (gel 0.10 wt%) is 44.44%; in experiment [1] (gel 0.50 wt%), 33.33%; in experiment [1] (gel 1 wt%) it was 50%; in experiment [1] (gel 3 wt%), 71.43%; in experiment [1] (gel 5 wt%) it was 75.00%; in experiment [2] (transdermal 1% (wt %)) it was 62.50%. Also, the “Control Rate Hindpaws” value in experiment [2] (transdermal 3% (wt %)) is reported as 71.43%.
With `CC1=C(CC(=O)OC[C@H]2O[C@@H](n3cc(C)c(=O)[nH]c3=O)C[C@@H]2O)c2cc(F)ccc2/C1=C\c1ccc([S+](C)[O-])cc1` (stereo partly drawn) [T40], the inhibition in vivo at 3 % came out at 44.4% in experiment [1] (setting [5]) and 66.7% in experiment [1] (setting [6]). The inhibition in vivo at 200 mg/kg came to 75% in experiment [2] (setting [3]) and 88% in experiment [2] (setting [4]).

The record behind these values is patent publication US20230405003A1, “APPLICATION OF THYMIDINE DERIVATIVE IN PREPARATION OF DRUGS” (ONQUALITY PHARMACEUTICALS CHINA LTD., priority 2020, published 2023).
